The source made the active and inactive calls. The rule behind the calls is not given here.
How the values were obtained:
[1] = biological target: T1, G-protein coupled receptor 35 (Homo sapiens, UniProt Q9HC97); experiment: Agonist activity at GPR35 receptor in human HT-29 cells after 10 mins by dynamic mass redistribution assay; assay type: functional, cell-based
[2] = biological target: T1, G-protein coupled receptor 35; experiment: Agonist activity at GPR35 receptor in human U2OS cells coexpressing Gal4-VP16-TEV assessed as beta arrestin translocation after 5 hrs by beta lactamase reporter gene assay; assay type: functional, cell-based
[3] = biological target: T1, G-protein coupled receptor 35; experiment: Desensitization of GPR35 receptor in human HT-29 cells assessed as inhibition of zaprinast-induced dynamic mass redistribution after 10 mins; assay type: cell-based
[4] = biological target: T1, G-protein coupled receptor 35; experiment: Agonist activity at GPR35 receptor in human HT-29 cells assessed as shift in resonant wavelength of biosensor stimulation after 10 mins by dynamic mass redistribution assay relative to control; assay type: functional, cell-based
[5] = biological target: T1, G-protein coupled receptor 35; experiment: Agonist activity at GPR35 receptor in human U2OS cells coexpressing Gal4-VP16-TEV assessed as beta arrestin translocation after 5 hrs by beta lactamase reporter gene assay relative to control; assay type: functional, cell-based
[6] = biological target: T1, G-protein coupled receptor 35; experiment: Agonist activity at GPR35 receptor in human HT-29 cells at 8 uM after 10 mins by dynamic mass redistribution assay in the presence of SPB05142; assay type: functional, cell-based
[7] = biological target: T1, G-protein coupled receptor 35; experiment: Partial agonist activity at GPR35 receptor in human U2OS cells coexpressing Gal4-VP16-TEV assessed as beta arrestin translocation after 5 hrs by beta lactamase reporter gene assay; assay type: functional, cell-based
[8] = biological target: T1, G-protein coupled receptor 35; experiment: Agonist activity at GPR35 receptor in human HT-29 cells at 32 uM after 10 mins by dynamic mass redistribution assay in the presence of SPB05142; assay type: functional, cell-based
[9] = biological target: T1, G-protein coupled receptor 35; experiment: Agonist activity at GPR35 receptor in human HT-29 cells at 16 uM after 10 mins by dynamic mass redistribution assay in the presence of SPB05142; assay type: functional, cell-based
[10] = biological target: T1, G-protein coupled receptor 35; experiment: Partial agonist activity at GPR35 receptor in human HT-29 cells after 10 mins by dynamic mass redistribution assay; assay type: functional, cell-based
[11] = biological target: T1, G-protein coupled receptor 35; experiment: Agonist activity at GPR35 receptor in human HT-29 cells at 2 uM after 10 mins by dynamic mass redistribution assay in the presence of SPB05142; assay type: functional, cell-based
[12] = biological target: T1, G-protein coupled receptor 35; experiment: Agonist activity at GPR35 receptor in human HT-29 cells at 4 uM after 10 mins by dynamic mass redistribution assay in the presence of SPB05142; assay type: functional, cell-based

T1 sequence (Q9HC97 whole entry, the tested form may be a part): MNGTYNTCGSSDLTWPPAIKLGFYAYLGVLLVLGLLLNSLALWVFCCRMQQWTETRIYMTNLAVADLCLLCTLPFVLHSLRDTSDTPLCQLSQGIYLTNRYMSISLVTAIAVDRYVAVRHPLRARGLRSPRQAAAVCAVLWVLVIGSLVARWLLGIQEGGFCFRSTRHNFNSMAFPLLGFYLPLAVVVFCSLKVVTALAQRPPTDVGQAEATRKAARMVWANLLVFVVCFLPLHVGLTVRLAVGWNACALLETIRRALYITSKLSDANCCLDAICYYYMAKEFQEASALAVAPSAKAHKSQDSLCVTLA

Structure (SMILES)	EC50 [1] [µM]	EC50 [2] [µM]	IC50 [3] [µM]	Efficacy [4] [picometer]	Ratio [5]	Activity [6]	Activity [7]	Activity [8]	Activity [9]	Activity [10]	Activity [11]	Activity [12]	Activity [1]	Activity [3]
O=c1c(O)c(-c2ccc(O)cc2O)oc2cc(O)cc(O)c12 [MORIN]	1.33	11.2	1.6	284	9.8	inactive	–	–	–	–	–	–	–	–
CC(C)=CCC1=C(O)C(=O)c2ccccc2C1=O [LAPACHOL]	2.84	47.9	4.66	328	8.7	inactive	–	–	–	–	–	–	–	–
O=c1cc(-c2ccccc2)oc2cc(O)c(O)c(O)c12 [BAICALEIN]	10.3	22.7	28.2	248	2.1	–	Active	inactive	–	–	–	–	–	–
O=C1C=C2CC3(O)COc4c(ccc(O)c4O)C3=C2C=C1O (stereo unspecified) [HEMATEIN]	11.1	4.7	30.4	391	2.1	–	–	–	inactive	–	–	–	–	–
O=c1c(O)c(-c2cc(O)c(O)c(O)c2)oc2cc(O)cc(O)c12 [MYRICETIN]	3.02	14.7	2.12	224	9.2	inactive	–	–	–	Active	–	–	–	–
O=c1cc(-c2ccc(O)c(O)c2)oc2cc(O)cc(O)c12 [LUTEOLIN]	7.24	3.2	18.6	68	1.5	–	Active	inactive	–	Active	–	–	–	–
CCCOc1ccccc1-c1nc2[nH]nnc2c(=O)[nH]1	–	–	–	269	–	–	–	–	–	–	–	–	–	–
Cc1c(C(=O)O)sc2c(Br)csc12	–	17.6	–	283	13.9	–	–	–	–	–	–	–	–	–
CCCCCc1c2c(cc(O)c1C(=O)O)OC(=O)c1c(cc(OC)cc1C(=O)CCCC)O2 [LOBARIC ACID]	2.39	17.6	4.54	317	2	–	–	–	inactive	–	–	–	–	–
N#C/C(=C\c1ccc(O)cc1)C(=O)O [alpha-CYANO-4-HYDROXYCINNAMIC ACID]	9.8	70.7	30.4	331	4	inactive	–	–	–	–	–	–	–	–
CC(=O)NCCc1ccc(O)c(-c2c(O)c(O)c3c(c2O)C(=O)c2c(cc(O)c(C(=O)O)c2C(=O)O)C3=O)c1 [LACCACID ACID A]	0.39	51.5	0.39	263	3.5	–	–	inactive	–	–	–	–	–	–
O=c1c(O)c(-c2ccc(O)c(O)c2)oc2cc(O)cc(O)c12 [QUERCETIN]	8.02	5.93	15.4	40	2.3	–	–	inactive	–	Active	–	–	–	–
O=c1oc2c(O)c(O)cc3c(=O)oc4c(O)c(O)cc1c4c23 [ELLAGIC ACID]	0.11	2.96	0.1	319	3.4	–	–	–	–	–	inactive	–	–	–
O=C(O)c1cc(O)c(=O)c2c(O)c(O)ccc2c1 [7-DESHYDROXYPYROGALLIN-4-CARBOXYLIC ACID]	0.054	12.4	0.11	233	10.9	–	–	–	–	–	–	inactive	–	–
O=C(O)c1cccnc1Nc1cccc(C(F)(F)F)c1	–	–	–	260	–	–	Active	inactive	–	–	–	–	Dose-dependent effect	Dose-dependent effect
